Experimental data from patent publication US20200297820A1, “STIMULATION OF HUMAN MEIBOMIAN GLAND FUNCTION” (The Schepens Eye Research Institute, Inc., priority 2013, published 2020).

Columns and labels:
Assay type in all cases: cell-based
[1] = system: human meibomian gland epithelial cells; test: LysoTracker Red staining of lysosomes; settings: 10 μg/ml, 5 days
Method: This section outlines the materials and methods that produced the experimental data. Immortalized human meibomian gland epithelial cells were cultured in the presence or absence of 10% fetal bovine serum. […]
Cell numbers were enumerated with a hemocytometer. Cellular lipid and lysosome accumulation were examined by staining cells with: Filipin III (a fluorometric probe for identifying unesterified cholesterol), LipidTOX green neutral lipid stain, and LysoTracker® Red DND-99 (a fluorescent technique designed for labeling acidic organelles such as lysosomes). Lysosomal lamellar bodies were identified by transmission electron microscopy. In brief, after culture and treatment on 24 mm polycarbonate membrane transwell inserts (0.4 μm pore size), cells were fixed in a solution of 2% formaldehyde+2.5% glutaraldehyde, in 0.08 M sodium cacodylate buffer, pH 7.4, post-fixed with 2% osmium tetroxide in 0.1 M sodium cacodylate buffer, and stained en bloc with 2% aqueousuranyl acetate. Samples were then dehydrated in graded ethyl alcohol solutions and embedded by using the tEPON-812 epoxy resin kit. Cross sections ([…]) were stained with 1% toluidine blue in 1% sodium tetraborate solution. […] Lipids were then evaluated with high-performance thin-layer chromatography. […] Image data were quantified with ImageJ (http://rsbweb.nib.gov/ij/index.html). […]

[2] = system: human meibomian gland epithelial cells; test: High-performance thin-layer chromatography of total cellular lipid extracts; settings: for accumulation of CE / accumulation of TG: 10 nM IGF-1 or 10 μg/mL AZM
From the text: Cell numbers were enumerated with a hemocytometer. Cellular lipid and lysosome accumulation were examined by staining cells with: Filipin III (a fluorometric probe for identifying unesterified cholesterol), LipidTOX green neutral lipid stain, and LysoTracker® Red DND-99 (a fluorescent technique designed for labeling acidic organelles such as lysosomes). Lysosomal lamellar bodies were identified by transmission electron microscopy. In brief, after culture and treatment on 24 mm polycarbonate membrane transwell inserts (0.4 μm pore size), cells were fixed in a solution of 2% formaldehyde+2.5% glutaraldehyde, in 0.08 M sodium cacodylate buffer, pH 7.4, post-fixed with 2% osmium tetroxide in 0.1 M sodium cacodylate buffer, and stained en bloc with 2% aqueousuranyl acetate. Samples were then dehydrated in graded ethyl alcohol solutions and embedded by using the tEPON-812 epoxy resin kit. Cross sections ([…]) were stained with 1% toluidine blue in 1% sodium tetraborate solution. Ultra-thin sections (60-90 nm) were imaged with a transmission electron microscope interfaced with a digital CCD camera. For biochemical assessments, cellular lipids were extracted with chloroform and methanol from samples with the same amount of protein. Lipids were then evaluated with high-performance thin-layer chromatography. With regard to the staining results, three Filipin, five LipidTox and four LysoTracker studies were conducted, and each experiment was performed in duplicate. Four random pictures were taken of each group, and four random areas were selected for the measurement of fluorescent intensities. The HPTLC experiments were performed in duplicate more than three times. Image data were quantified with ImageJ (http://rsbweb.nib.gov/ij/index.html). Electron microscopic analyses were performed in triplicate.
FIG. 8a illustrates the effect of AZM on the expression of cholesterol ester (CE), free cholesterol (FC), phosphatidylethanolamine (PE), phosphatidylcholine (PC), and phosphatidylinositol (PI) inhuman meibomian gland epithelial cells. Cells were treated with vehicle or 10 μg/ml AZM for 5 days before performing chromatographic analyses of total lipid extracts. FIG. 8b illustrates band intensity of the cells shown in FIG. 8a measured using ImageJ. Control band intensity was set to 1, and data (mean±SE) are reported as fold-change compared to control values. *p<0.05,**p<0.005, versus control. Band intensity analysis includes data from at least three independent experiments.
FIGS. 14a and 14b illustrate the effect of IGF-1, AZM, and IFG-1+AZM combination on the accumulation of CE, TG, FC, PE, and PC. […] FIG. 14b quantifies band intensity using ImageJ. The control band intensity was set to 1, and data (mean 6 SE) were reported as fold-change compared with control values. […] Other bands are unidentified lipids. Band intensity analysis included data from three independent experiments.

[3] = system: human meibomian gland epithelial cells; test: Immunoblot of signaling pathways (Akt, FoxO1, ERK, JAK2/STAT5)
Method: The disclosure turns now to sodium dodecyl sulfate-polyacrylamide gel, electrophoresis, and immunoblots. Cells were directly lysed in Laemmli buffer supplemented with 1% protease inhibitor cocktail (Sigma-Aldrich) and 5% β-mercaptoethanol (Sigma-Aldrich). Lysates were heated at 95° C. for 10 minutes, separated by sodium dodecyl sulfate-polyacrylamide gel electrophoresis on 10% Tris-glycine precast gels, and transferred to polyvinylidene difluoride membranes. Rabbit or mouse antibodies used were specific for phosphorylated Akt (p-Akt), pan-Akt, p-FoxO1, FoxO1, p-JAK2, JAK2, and β-actin; for p-ERK, ERK-2, STAT5, and the precursor form of SREBP-1; and for p-STAT5. Membranes were blocked with 5% bovine serum albumin in Tris-buffered saline containing 0.01% polysorbate 20. All primary antibodies were diluted to 1:1000 in blocking buffer except for p-Akt (1:4000), p-ERK (1:2000), ERK-2 (1:4000), SREBP-1 (1:200), and β-actin (1:10 000). Horseradish peroxidase-conjugated secondary antibodies were goat anti-rabbit IgG and Fc-specific goat anti-mouse IgG diluted to 1:5000. Proteins were visualized with enhanced chemiluminescent substrate or with ultrasensitive chemiluminescent substrate. Densitometry was performed with image-processing software.
To determine whether IGF-1 promotes the phosphorylation of Akt in human meibomian gland epithelial cells, cells were cultured under proliferating or differentiating conditions and then exposed to IGF-1 for 15 minutes.
FIGS. 9a, 9b, and 9c illustrate the effects of insulin-like growth factor 1 (IGF-1) and growth hormone (GH) on signaling pathways in human meibomian gland epithelial cells. Cells were cultured in keratinocyte serum-free medium containing epidermal growth factor (EGF) and bovine pituitary extract (BPE) for 2 days and then keratinocyte serum-free medium alone overnight or were cultured in 10% fetal bovine serum (FBS) medium for 5 to 7 days and in 1% FBS medium overnight. Cells were then incubated with vehicle or a 10 μM concentration of LY294002 for 2 hours, followed by IGF-1 or GH treatment for 15 minutes. Cell lysates were evaluated on immunoblotting. […] These experiments were repeated at least 3 times with similar results.
To assess whether GH activates Akt, FoxO1, ERK-2, or its classic (i.e., JAK2 and STAT5) signaling pathways in human meibomian gland epithelial cells, cells were cultured in proliferating or differentiating media, and were exposed to a 10 nM concentration of GH for 15 minutes, and processed for immunoblot analyses. […]

LNCaP cells = test: Proliferation of LNCaP control cells; settings: 1% FBS, 2 days
Method: Regarding cell proliferation assay, the human meibomian gland epithelial cells and LNCaP cells were cultured in 12-well plates in designated media and then exposed to IGF-1 or GH for defined periods. At experimental termination, cells were trypsinized and counted with a hemocytometer.
FIGS. 10a, 10b, and 10c illustrate the influence of IGF-1 on the proliferation of human meibomian gland epithelial cells. Cells were cultured (100,000 cells/well in 12-well plates, 3 wells per group) in basal, proliferating, and/or differentiating media and treated with IGF-I for 2 to 6 days. […] P values are for post hoc comparison compared with the control value. […] ANOVA indicates analysis of variance; EGF-BPE, epidermal growth factor-bovine pituitary extract; KSFM, keratinocyte serum-free medium. All comparisons are with control value. Whiskers mark SEM. aP<0.05 compared with the control value, post hoc test.

[4] = system: immortalized human meibomian gland epithelial cells; test: LipidTOX green neutral lipid staining (lipid accumulation); settings: 10 nM each hormone, up to 13 days

CC[C@H]1OC(=O)[C@H](C)[C@@H](O[C@H]2C[C@@](C)(OC)[C@@H](O)[C@H](C)O2)[C@H](C)[C@@H](O[C@@H]2O[C@H](C)C[C@H](N(C)C)[C@H]2O)[C@](C)(O)C[C@@H](C)CN(C)[C@H](C)[C@@H](O)[C@]1(C)O [Azithromycin]
accumulation of lysosomes (LysoTracker) [1]: significantly stimulates the accumulation
accumulation of CE ([2]; 7 days): significant effect
accumulation of TG ([2]; 7 days): significant effect
accumulation of PE ([2]; 10 μg/mL AZM, 7 days): significant effect
accumulation of esterified cholesterol (CE) ([2]; 10 μg/ml, 5 days): significantly promotes an accumulation
accumulation of free cholesterol (FC) ([2]; 10 μg/ml, 5 days): significantly promotes an accumulation
accumulation of phosphatidylcholine (PC) ([2]; 10 μg/ml, 5 days): significantly promotes an accumulation
accumulation of phosphatidylethanolamine (PE) ([2]; 10 μg/ml, 5 days): significantly promotes an accumulation
accumulation of phosphatidylinositol (PI) ([2]; 10 μg/ml, 5 days): significantly promotes an accumulation

GH: human growth hormone
phosphorylation of extracellular-signal-regulated kinases (ERKs) [3]: increase the phosphorylation
activation of Akt, FoxO1, ERK-2, JAK2 and STAT5 ([3]; 10 nM, 15 minutes, proliferating or differentiating media): did not show that GH elicited effects
activation of Akt, FoxO1, ERK-2, JAK2 and STAT5 ([3]; doses of 0.05 to 50 nM): negative results
proliferation (LNCaP cells): increased
accumulation of lipid [4]: significant accumulation of lipid

IGF-1: recombinant human insulin-like growth factor 1
accumulation of CE ([2]; 7 days): significant effect
accumulation of TG ([2]; 7 days): significant effect
phosphorylation of extracellular-signal-regulated kinases (ERKs) [3]: increase the phosphorylation
phosphorylation of ERK ([3]; 10 nM, 15 minutes, 2 studies enhanced, 3 no influence): inconsistent effect
phosphorylation of FoxO1 ([3]; 10 nM, 15 minutes, differentiating cells): increased phosphorylation of FoxO1
culture condition in which Akt and FoxO1 phosphorylation occurred ([3]; 10 nM, 15 minutes, proliferating or differentiating conditions): differentiating but not proliferating cells
concentration at which p-Akt effect became maximal ([3]; IGF-1 for 15 minutes): 10 nM
concentration at which p-Akt effect could be detected ([3]; IGF-1 for 15 minutes): 1 nM
expression of p-Akt ([3]; IGF-1 for 15 minutes, differentiating cells): dose-dependent expression of p-Akt
phosphorylation of Akt ([3]; within minutes): increases the phosphorylation of Akt
proliferation (LNCaP cells): increased
accumulation of lipid [4]: significant accumulation of lipid
